One assay addresses T1, GluN1/GluN2C receptors (Rattus norvegicus, UniProt P35439+Q00961).
T1 construct: expressed in transfected cells; host or cells: HEK293
Briefly: Patch-clamp inhibition of GluN1/GluN2C receptors in transfected HEK293 cells. The format is cell-based. The following applies: 1 mM glutamate and 10 μM glycine. How it is done: (§1) FIGURE 7 Concentration–response properties of compound 6 on GluN1/GluN2A-D receptors. (A) Examples of traces obtained from HEK293 cells transfected with cDNAs encoding GluN1/GluN2A, GluN1/GluN2B, GluN1/GluN2C, and GluN1/GluN2D receptors. Agonists (1 mM glutamate and 10 μM glycine) were applied alone and simultaneously with compound 6 (10 μM) to evaluate the inhibitory effect of compound 6 on NMDAR mediated currents (duration of glutamate and steroid application is indicated by filled and open bars, respectively). (B) Concentration–response curves for the compound 6 effect at GluN1/GluN2A-D receptors. Data points are averaged values of normalized responses from at least four HEK293 cells. Error bars represent SD.
(§2) Electrophysiological experiments were performed on HEK293 cells transfected with plasmids encoding rat GluN1-1a/GluN2A-D and GFP genes as described previously, ([Petrovic et al., 2005]; [Cais et al., 2008]; [Korinek et al., 2010]) or on primary hippocampal neurons prepared from P0–P1 rats, plated on collagen/poly-D-lysine-coated glass coverslips at a density of ∼50,000 cells/cm^2, and grown in Neurobasal A medium with B27 Supplement (Gibco). Agonist-induced responses were voltage-clamped at a holding potential of −60 mV. […] Agonist-induced responses were low-pass filtered at 2 kHz, digitally sampled at 5 kHz, and analyzed with pClamp software version 10.5 (Molecular Devices). […]

The target of another assay is T2, GluN1/GluN2D receptors (Rattus norvegicus, UniProt P35439+Q62645).
T2 construct: expressed in transfected cells; host or cells: HEK293
T2 sequence (Q62645 28-1323, other chains not shown): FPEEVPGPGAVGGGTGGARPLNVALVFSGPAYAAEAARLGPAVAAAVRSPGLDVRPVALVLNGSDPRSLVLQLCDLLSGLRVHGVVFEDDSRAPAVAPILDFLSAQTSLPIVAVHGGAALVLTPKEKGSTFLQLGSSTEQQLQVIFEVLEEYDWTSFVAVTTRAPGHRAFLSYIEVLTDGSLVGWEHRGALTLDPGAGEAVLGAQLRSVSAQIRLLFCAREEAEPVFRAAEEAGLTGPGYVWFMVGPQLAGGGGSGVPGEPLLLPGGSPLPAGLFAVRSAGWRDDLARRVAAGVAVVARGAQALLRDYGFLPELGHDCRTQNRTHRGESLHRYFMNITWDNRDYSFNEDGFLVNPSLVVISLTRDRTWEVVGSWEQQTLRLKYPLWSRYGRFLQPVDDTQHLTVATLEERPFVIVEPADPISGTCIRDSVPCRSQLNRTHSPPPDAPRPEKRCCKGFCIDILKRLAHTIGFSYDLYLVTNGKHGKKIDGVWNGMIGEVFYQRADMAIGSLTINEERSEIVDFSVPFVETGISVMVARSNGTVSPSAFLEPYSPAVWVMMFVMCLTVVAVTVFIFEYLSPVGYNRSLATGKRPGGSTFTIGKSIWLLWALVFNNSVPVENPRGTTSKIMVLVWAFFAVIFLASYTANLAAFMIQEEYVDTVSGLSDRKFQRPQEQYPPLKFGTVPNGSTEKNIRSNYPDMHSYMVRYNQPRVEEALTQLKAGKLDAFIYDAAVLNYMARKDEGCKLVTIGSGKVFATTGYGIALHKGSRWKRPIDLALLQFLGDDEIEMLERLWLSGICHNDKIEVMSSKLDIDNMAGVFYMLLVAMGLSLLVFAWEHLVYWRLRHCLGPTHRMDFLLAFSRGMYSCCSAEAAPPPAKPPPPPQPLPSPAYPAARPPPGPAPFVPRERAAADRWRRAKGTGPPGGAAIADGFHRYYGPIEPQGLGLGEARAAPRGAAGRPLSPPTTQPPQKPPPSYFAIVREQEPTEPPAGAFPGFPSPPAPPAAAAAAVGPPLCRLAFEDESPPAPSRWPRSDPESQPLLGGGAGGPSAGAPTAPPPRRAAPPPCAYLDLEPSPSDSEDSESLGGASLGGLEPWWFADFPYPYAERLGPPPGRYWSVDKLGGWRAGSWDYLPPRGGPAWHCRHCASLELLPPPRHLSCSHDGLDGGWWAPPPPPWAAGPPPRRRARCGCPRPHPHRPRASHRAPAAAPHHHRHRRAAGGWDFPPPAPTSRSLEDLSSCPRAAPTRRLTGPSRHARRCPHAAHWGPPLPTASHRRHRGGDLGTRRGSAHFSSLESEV
Briefly: Patch-clamp inhibition of GluN1/GluN2D receptors in transfected HEK293 cells. The format is cell-based. The settings on record: 1 mM glutamate and 10 μM glycine. How it is done:
as §1, §2
In general terms: In patch-clamp work, channel activity is measured electrically.

T1 sequence (Q00961 20-1237, other chains not shown): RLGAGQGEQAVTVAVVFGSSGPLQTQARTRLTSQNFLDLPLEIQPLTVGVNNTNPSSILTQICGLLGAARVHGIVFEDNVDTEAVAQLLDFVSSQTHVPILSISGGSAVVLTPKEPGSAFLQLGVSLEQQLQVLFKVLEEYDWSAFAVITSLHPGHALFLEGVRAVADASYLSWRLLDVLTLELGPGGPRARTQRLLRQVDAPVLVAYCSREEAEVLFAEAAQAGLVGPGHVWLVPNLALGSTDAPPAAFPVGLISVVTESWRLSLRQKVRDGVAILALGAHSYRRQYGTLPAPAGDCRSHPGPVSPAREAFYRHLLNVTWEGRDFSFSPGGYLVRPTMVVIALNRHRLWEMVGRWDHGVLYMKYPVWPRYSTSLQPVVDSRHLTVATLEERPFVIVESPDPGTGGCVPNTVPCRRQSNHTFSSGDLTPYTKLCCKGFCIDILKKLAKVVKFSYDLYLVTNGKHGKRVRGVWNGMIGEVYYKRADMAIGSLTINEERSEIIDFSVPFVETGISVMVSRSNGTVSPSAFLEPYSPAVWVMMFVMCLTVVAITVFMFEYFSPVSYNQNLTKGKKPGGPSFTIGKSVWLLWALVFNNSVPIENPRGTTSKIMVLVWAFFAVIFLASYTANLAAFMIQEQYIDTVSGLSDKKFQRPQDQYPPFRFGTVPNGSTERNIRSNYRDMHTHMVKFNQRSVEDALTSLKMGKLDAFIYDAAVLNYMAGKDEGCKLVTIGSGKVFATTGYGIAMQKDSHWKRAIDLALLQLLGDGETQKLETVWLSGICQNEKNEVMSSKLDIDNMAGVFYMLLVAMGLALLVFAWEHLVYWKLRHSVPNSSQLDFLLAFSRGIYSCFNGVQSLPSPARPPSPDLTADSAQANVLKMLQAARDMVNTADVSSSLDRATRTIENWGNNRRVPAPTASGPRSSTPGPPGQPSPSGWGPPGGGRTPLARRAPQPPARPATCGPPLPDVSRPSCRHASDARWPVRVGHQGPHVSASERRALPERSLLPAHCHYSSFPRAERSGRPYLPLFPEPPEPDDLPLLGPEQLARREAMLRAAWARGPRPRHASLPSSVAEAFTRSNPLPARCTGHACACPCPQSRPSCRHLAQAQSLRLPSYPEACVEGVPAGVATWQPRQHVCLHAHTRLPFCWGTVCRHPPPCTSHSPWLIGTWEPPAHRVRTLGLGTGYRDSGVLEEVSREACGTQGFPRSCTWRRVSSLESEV

As for `C[C@@]12CCC[C@H]1[C@@H]1CC[C@@H]3C[C@H](NC(=O)[C@@H](N)CC(=O)O)CC[C@]3(C)[C@H]1CC2` [Compound 6, (S)-3-amino-4-(((3R,5R,8S,9S,10S,13S,14S)-10,13-dimethylhexadecahydro-1H-cyclopenta[a]phenanthren-3-yl)amino)-4-oxobutanoic acid], the “h ± SD (apparent Hill coefficient)” value at GluN1/GluN2C receptors and at GluN1/GluN2D receptors was 1.6 ± 0.3 throughout. The IC50 (commonly the concentration that gives 50% inhibition) came to 7.3 ± 0.8 µM at GluN1/GluN2C receptors (concentration-response) and 8.4 ± 1 µM on GluN1/GluN2D receptors (concentration-response).

These data come from PMC6240685, “Strong Inhibitory Effect, Low Cytotoxicity and High Plasma Stability of Steroidal Inhibitors of N-Methyl-D-Aspartate Receptors With C-3 Amide Structural Motif” (Frontiers in Pharmacology, 2018).
